Test results taken from US20220401343A1, “ORAL CARE COMPOSITIONS FOR GUM HEALTH” (The Procter & Gamble Company, priority 2020, published 2022).

How the values were obtained:
[1] = tested on: Primary Human Gingival Fibroblasts (HGF); assay: Test 1: In-Vitro Human Gingival Fibroblasts Soluble Collagen Assay (Sircol); assay type: cell-based; details: for increase in collagen productivity vs. base control: Table 7 data, difference to base control
Description: Stage 1: Culturing Primary Human Gingival Fibroblasts (“HGF”): Primary Human Gingival Fibroblasts (“HGF”) were collected from tooth extraction patients and washed with 5 mL of PBS (phosphate buffered saline). The tissues were chopped into small pieces and placed into 15 mL centrifuge tube. The samples were digested with equal amounts of 1 mL 8% dispase and 1 mL 6% collagenase for 1 hr at 37° C., during which time the samples need to be shaken every 15 minutes. Once the digestion process was complete, the tube was centrifuged at 1100 r.p.m. for 6 minutes at room temperature. After centrifugation, a pellet of cells was formed in the bottom of the tube separating them from the supernatant solution. Then the supernatant was discarded and the cell pellet was suspended in 3 mL of fresh Minimum Essential Medium (“MEM”, available from Thermo Fisher) culture medium then transferred to a petri dish. The petri dish with cells were placed in the incubator at 37° C. with 5% CO2 for about 10 days. The petri dish was checked for changes in medium color every two days. Fresh culture medium was replaced if changes in medium color occurred.
Stage 2: Treatment with Compositions: Sub-Culturing Human Gingival Fibroblasts: When there was 80-90% cell monolayer coverage of the petri dish, the present culture medium was removed and washed with 5 mL of PBS. 1 mL 0.25% trypsin-EDTA solution was added and the cells sat for about 1-2 minutes at 37° C. until the cells were visibly round-shaped. It was occasionally necessary to tap the petri dish to remove any sticky cells from the petri dish surface. At least 1 mL of fresh MEM culture medium was added to inactivate the trypsin and the cells are collected into a 15 mL centrifuge tube. The tube was then centrifuged at 1100 r.p.m. for 6 minutes at room temperature. The supernatant was discarded and cell pellet is re-suspend-ed in 4 mL of fresh MEM culture medium in the same centrifuge tube. Petri dishes were each placed with 1 mL cell suspension and 9 mL fresh MEM culture medium in the incubator at 37° C. with 5% CO2 for about 3-5 days until 80-90% cell monolayer coverage on the petri dishes was observed.
When there was 80-90% cell monolayer coverage on the petri dishes, cells were re-suspended in 6 mL of fresh MEM culture medium. 1 mL cell suspension and 1 mL fresh MEM culture medium were respectively added into each well of a 6-well plate. The cells were further washed with 2 mL PBS to remove any suspended cells until no suspended cells are visible. […] Cells were maintained in the incubator at 37° C. with 5% CO2 for 72 hours.
Stage 3 Soluble Collagen Assay: Soluble collagen (types I to V) levels were measured by Sircol collagen assay kit (available from Biocolor, UK). After treatment, cells were washed two times with chilled PBS and homogenized with 6M urea. The cell homogenates were centrifuged at 15,000 r.p.m. for 15 min. 100 μL of the supernatant was mixed with 1 mL of Sircol Dye Reagent for 30 minutes. During this time period, a collagen-dye complex formed and precipitated out from the soluble unbound dye. The tubes were transferred to a microcentrifuge and spun at 12,000 r.p.m. for 10 minutes. The tubes were carefully inverted and drained. 750 μL ice-cold Acid-Salt Wash Reagent was gently added to the collagen-dye pellet to remove unbound dye from the surface of the pellet and the inside surface of the microcentrifuge tube. The tube was then centrifuged at 12,000 r.p.m. for 10 minutes. The supernatant was drained into a waste container and any fluid from the lip of the tubes was removed using cotton wool buds. 250 μL of Alkali Reagent was added to each tube to fully release the collagen bound dye. 200 μL of each sample was transferred to individual wells of a 96 micro well plate, keeping a record map of the contents of each well from A1 to H12.

[2] = tested on: collagen genes COL1A1 and COL1A2 in skin dermis; assay: Compound Screening on Skin Dermis: collagen gene expression (microarray) after topical treatment; assay type: in vivo, human; details: dorsal forearm twice daily, four weeks, vs vehicle, retinol at 0.2%, Pal-KTTKS at 100 ppm, p-value in brackets in the cell
Text: To screen compounds, 30 to 40 female subjects with Fitzpatrick skin types I-III, aged 60-70. At Baseline, each subject was assigned to test each treatment. The products were applied to the dorsal forearm twice daily. Topical treatment with a minimally efficacious moisturizer was used as the vehicle for each test compound and as the negative control.
After four weeks of treatment, one 4-mm punch biopsy was taken from each treated site. The dermis was separated and snap-frozen in liquid nitrogen and stored at −80° C. until assayed. The frozen tissue was then processed for gene expression analysis. To determine gene expression levels, RNA was extracted, labeled with biotin, hybridized and analyzed using Affymetrix GeneTitan® U219 microarray plates according to the manufacturer's instructions.
For genomics analysis, microarray sample quality was assessed using principal components analysis and MA-plots. Treatment to negative control comparisons for the microarray data were assessed using ANOVA models fitted separately for each probe set. ANOVA model hypothesis tests were evaluated using the Empirical Bayes method available in the limma R package. A p-value cutoff of 0.05 or less was consider statistically significant.

[3] = Table 5, 1% composition in culture medium, 72 hours

Molecule | increase in collagen productivity vs. base control [1] | COL1A1 LFC (Log base 2 of the average Fold Change) [2] | COL1A2 LFC (Log base 2 of the average Fold Change) [2] | COL1A1 LFC (Log base 2 of the average Fold Change) ([2]; listed as retinol) | COL1A2 LFC (Log base 2 of the average Fold Change) ([2]; listed as retinol) | Collagen Productivity (Collagen/Cell) [1, 3] | Total Cell Count Cell [1, 3] | Total Collagen ([1]; Table 5, retinoids at 20 ppm in composition, 1% composition in culture medium, 72 hours) [ug/100 ul] | Collagen Productivity (Collagen/Cell) ([1]; Table 6, 1:100 dilution) | Total Cell Count Cell ([1]; Table 6, 1:100 dilution) | Collagen Productivity ([1]; Table 7, 1:100 dilution) [ug per 10^5 cells/100 ul] | Total Cell Count Cell ([1]; Table 7, 1:100 dilution) | Total Collagen ([1]; Table 7, 1:100 dilution) [ug/100 ul] | Collagen Productivity (Collagen/Cell) ([1]; Table 9, 1:50 dilution) | Total Cell Count Cell ([1]; Table 9, 1:50 dilution) | Total Collagen ([1]; Table 9, 1:50 dilution) [ug/100 ul]
CC1=C(/C=C/C(C)=C/C=C/C(C)=C/CO)C(C)(C)CCC1 [Retinol, retinol] | 0.30 | −0.10 (0.93) | −0.022 (0.88) | did not demonstrate significant regulation | did not demonstrate significant regulation |  |  |  |  |  |  |  |  |  |  | 
TGF-B |  |  |  |  |  | 5.17 | 2.60 ×10^5 | 13.44 | 4.86 | 2.72 ×10^5 | 4.86 | 2.72 ×10^5 | 13.24 | 5.17 | 2.60 ×10^5 | 13.44
palmitoyl-lys-thr-thr-lys-ser [Pal-KTTKS] | 0.24 |  |  |  |  |  |  |  |  |  |  |  |  |  |  | 
